Consider seven molecules from paper PMC11472058, “Trinucleotide cap analogs with triphosphate chain modifications: synthesis, properties, and evaluation as mRNA capping reagents” (Nucleic Acids Research, 2024).

One experiment concerns the target T1, Human Dcp2 (Homo sapiens, UniProt Q8IU60).
T1 construct: made in house; host or cells: E. coli
Put plainly: RNA decapping assay with recombinant hDcp2. It counts as biochemical. The settings on record: for Susceptibility to hDcp2 (@30 min): fraction of decapped RNA after 30 min of incubation with hDcp2, 27-nt RNA capped with the analog, 37 °C, triplicates ± SD. The method, then:
Human Dcp2 was expressed in E. coli and purified as described previously ([52]). Short 27 nt-capped RNAs (24.2 ng) were diluted with decapping buffer (50 mM Tris–HCl pH 8.0, 50 mM NH4Cl, 0.01% NP-40, 1 mM DTT, 5 mM MgCl2 and 2 mM MnCl2; 2.9 μl of freshly prepared 10 × Buffer) and the final volume was adjusted to 29 μl with ultrapure RNase free water. 4.2 ng (5 μl) of the solution was taken out as time zero reference and diluted with 5 μl loading dye (5 M urea, 44% formamide, 20 mM EDTA, 0.03% bromophenol blue, 0.03% xylene cyanol). The remaining RNAs (20 ng/24 μl) were subjected to 10 nM hDcp2 (250 nM, 1 μl) and the mixtures were incubated at 37°C for 1 h. At defined time points (5, 15, 30 and 60 min), 4 ng of RNA (5 μl) were taken out and the reactions were quenched by adding an equal volume of loading dye. RNAs were resolved electrophoretically on denaturing 15% acrylamide:bisacrylamide 19:1/7 M urea/1 × TBE gel, stained with SYBR Gold (Invitrogen) and visualized using a Typhoon FLA 9500 (GE Healthcare). The decapping progress was determined for each time point by densitometry analysis of the gels, as a ratio between the intensity of the band corresponding to capped RNA and the sum of the intensity of bands from capped and uncapped RNAs. The percentages of remaining capped RNA were then plotted as a function of time.
The RNAs used to determine the capping efficiencies were also useful to study the susceptibility of capped RNA to decapping by hDcp2, the catalytic subunit of the major human mRNA decapping complex Dcp1/Dcp2, which releases m^7GDP and 5′-monophosphorylated RNA (in this case the 26-nt pApG-RNA24; Figure 4C). The progress of decapping at different time points (5, 15, 30 and 60 min) was monitored by HR-PAGE followed by densitometric analysis of the gels (Figure 4C, triplicates of gels are shown in Supplementary Figure S2), and the fraction of remaining capped RNA (27-nt) was plotted as a function of time (Figure 4D-G). […] For better visualization, the data of modified capped RNAs were grouped according to the type of modification present at the 5′ end and presented in separate graphs (Figure 4E–G). To quantify the relative susceptibility to hDcp2, we compared the decapping levels at the 30 min time point (Table 1). For RNAs capped with β-S-triphosphate analogs (1–6, Figure 4E, Table 1), we observed a significant difference in susceptibility to hDcp2 between RP and SP isomers, independent of the methylation pattern.

The next experiment addresses T2, human eIF4E1a (Homo sapiens, UniProt P06730).
T2 construct: made in house; host or cells: E. coli Rosetta 2 (DE3)pLysS
Put plainly: Fluorescence quenching titration (FQT) binding assay with eIF4E. Conditions: for Kd: fluorescence quenching titration, 20 °C, pH 7.2, average of triplicates ± SD, read-out: heIF4E1a KD. As for the experimental part:
The human eIF4E1a protein was expressed without affinity tag in E. coli Rosseta 2 (DE3)pLysS strain (Novagen) under conditions leading to accumulation of the produced protein in inclusion bodies ([48]). The protein was extracted from inclusion bodies with buffer containing 6 M guanidine hydrochloride, refolded by one-step dialysis against 50 mM HEPES/KOH (pH 7.2), 100 mM KCl, 0.5 mM EDTA, 2 mM DTT, and purified by ion exchange chromatography on HiTrap SP HP 5 ml column (GE Healthcare) using salts gradient. Finally, protein was filtered using Ultrafree MC-HV Centrifugal PVDF filters with 0.45 μm membrane pore (Millipore) to remove protein aggregates and its concentration was determined spectrophotometrically assuming the theoretical extinction coefficient ϵ280nm = 52 940 L mol^−1cm^−1—calculated from amino acid composition using algorithm on ExPASy Server.
Fluorescence titration measurements were carried out on a LS-55 spectrofluorometer (Perkin Elmer Co., Norwalk, CT, USA) in a quartz semi-micro cuvette (Hellma, Germany) with optical lengths 4 mm and 10 mm for absorption and emission, respectively, which was thermostated at 20.0 ± 0.2 °C. The titrations were performed in 50 mM Hepes/KOH pH 7.2, 100 mM KCl, 0.5 mM EDTA and 1 mM DTT by adding 1 μl aliquots of increasing concentrations of the cap solutions to 1.4 ml of 0.1 μM eIF4E1a solution. The eIF4E1a fluorescence was excited at 280 nm and the fluorescence intensity was monitored at a single wavelength 340 nm. The measured fluorescence intensities were corrected for dilution (<4%) and for the inner filter effect. Association equilibrium constants (Kas) were obtained by fitting the theoretical curve for fluorescence intensity (F) upon total concentration of cap analogs ([L]) to the titration data according to the equation: […]
with the concentration of the cap analogs–eIF4E1a complex [cx] given by:
where Δϕ stands for the difference between the fluorescence efficiencies of the apo- and cap analog bound proteins; ϕlig-free is the fluorescence efficiency of the free cap analog; F(0) is the initial fluorescence, and Pact is the total concentration of the active protein ([49]). The final KAS values were calculated as a weighted average from three independent titrations and represented as the KD values. Numerical least-squares nonlinear regression analysis was performed using ORIGIN 2021 from Microcal Software Inc., USA.
Recognition of the mRNA 5′ cap by translation initiation factor 4E (eIF4E) is considered to be the rate-limiting step for the entire translation process ([63],[64]), therefore we investigated the affinity of novel trinucleotide cap analogs to the canonical human eIF4E1a protein by fluorescence quenching titration (FQT; Table 1 column 1, Figure 3) ([65]). As a reference, we determined the dissociation constant between heIF4E1a and the trinucleotide cap-1 structure m^7GpppAmpG, which was equal to 42 nM and very close to the analogous value previously determined for mouse Δ27NeIF4E (46 nM) ([12]). In the case of all modifications tested, the KD values for cap-heIF4E1a complexes are consistent with the results previously obtained for dinucleotide counterparts and murine eIF4E protein, although the magnitude of the modification effect is generally lower. The most tightly bound tetraphosphate analogs (compounds 10–12) show KD values of 6–7 nM, which means that their affinity is about 6-fold higher compared to the triphosphate counterparts. The affinities decrease upon CH2 or CCl2 modification of the tetraphosphate bridge (compounds 13–16), but they are still 4–5 times higher than for the triphosphate analogs with the same adenosine methylation pattern.

As usually defined, the Kd is a measure of binding affinity in units of concentration.

T2 sequence (P06730 whole entry): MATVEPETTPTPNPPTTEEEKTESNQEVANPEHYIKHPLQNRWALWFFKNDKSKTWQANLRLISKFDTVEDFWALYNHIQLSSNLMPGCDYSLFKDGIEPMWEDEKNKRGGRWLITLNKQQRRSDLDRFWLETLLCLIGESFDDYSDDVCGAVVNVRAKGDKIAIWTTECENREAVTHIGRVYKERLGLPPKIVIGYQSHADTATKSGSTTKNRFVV

Take `C[n+]1cn([C@@H]2O[C@H](COP(=O)(O)O[P@@](=O)([S-])OP(=O)(O)OC[C@H]3O[C@@H](n4cnc5c(N)ncnc54)[C@H](O)[C@@H]3OP(=O)(O)OC[C@H]3O[C@@H](n4cnc5c(=O)[nH]c(N)nc54)[C@H](O)[C@@H]3O)[C@@H](O)[C@H]2O)c2nc(N)nc(O)c21` [Compound 1, m^7GppSpApG]: the “Susceptibility to hDcp2 (@30 min)” value at Human Dcp2 turned out to be 0.81 ± 0.16. In addition, the Kd on human eIF4E1a came out at 12.6 ± 0.8 nM.
For `C[n+]1cn([C@@H]2O[C@H](COP(=O)(O)O[P@](=O)([S-])OP(=O)(O)OC[C@H]3O[C@@H](n4cnc5c(N)ncnc54)[C@H](O)[C@@H]3OP(=O)(O)OC[C@H]3O[C@@H](n4cnc5c(=O)[nH]c(N)nc54)[C@H](O)[C@@H]3O)[C@@H](O)[C@H]2O)c2nc(N)nc(O)c21` [Compound 2, m^7GppSpApG] the same measures were 0.31 ± 0.09 and 15.9 ± 0.9 nM.
For `COC1C(OP(=O)(O)OCC2OC(n3cnc4c(=O)[nH]c(N)nc43)C(O)C2O)C(COP(=O)(O)OP(=O)([S-])OP(=O)(O)OCC2OC(n3c[n+](C)c4c(O)nc(N)nc43)C(O)C2O)OC1n1cnc2c(N)ncnc21` (stereo not shown) [Compound 3, m^7GppSpAmpG], in that order: 0.82 ± 0.09 and 14 ± 0.8 nM.
For `COC1C(OP(=O)(O)OCC2OC(n3cnc4c(=O)[nH]c(N)nc43)C(O)C2O)C(COP(=O)(O)OP(=O)([S-])OP(=O)(O)OCC2OC(n3c[n+](C)c4c(O)nc(N)nc43)C(O)C2O)OC1n1cnc2c(N)ncnc21` (stereo not shown) [Compound 4, m^7GppSpAmpG], in that order: 0.32 ± 0.10 and 16.6 ± 1.1 nM.
In the case of `CNc1ncnc2c1ncn2[C@@H]1O[C@H](COP(=O)(O)O[P@@](=O)([S-])OP(=O)(O)OC[C@H]2O[C@@H](n3c[n+](C)c4c(O)nc(N)nc43)[C@H](O)[C@@H]2O)[C@@H](OP(=O)(O)OC[C@H]2O[C@@H](n3cnc4c(=O)[nH]c(N)nc43)[C@H](O)[C@@H]2O)[C@H]1OC` [Compound 6, m^7GppSp^m6AmpG], the “Susceptibility to hDcp2 (@30 min)” value on Human Dcp2 turned out to be 0.15 ± 0.10. The Kd at human eIF4E1a turned out to be 21.7 ± 0.6 nM.
Turning to `C[n+]1cn([C@@H]2O[C@H](COP(=O)(O)OP(=O)(O)OP(=O)([O-])SC[C@H]3O[C@@H](n4cnc5c(N)ncnc54)[C@H](O)[C@@H]3OP(=O)(O)OC[C@H]3O[C@@H](n4cnc5c(=O)[nH]c(N)nc54)[C@H](O)[C@@H]3O)[C@@H](O)[C@H]2O)c2nc(N)nc(O)c21` [Compound 7, m^7Gppp^5’SApG], the “Susceptibility to hDcp2 (@30 min)” value on Human Dcp2 amounted to 0.60 ± 0.15. Also, the “effect of modification on binding affinity for heIF4E1a (in words)” value at human eIF4E1a (compared to corresponding triphosphates) is recorded as “virtually no effect on binding affinity”. Further, the Kd at human eIF4E1a was found to be 31.4 ± 1.9 nM.
Regarding `CO[C@@H]1[C@H](OP(=O)(O)OC[C@H]2O[C@@H](n3cnc4c(=O)[nH]c(N)nc43)[C@H](O)[C@@H]2O)[C@@H](COP(=O)([O-])OP(=O)(O)CP(=O)(O)OP(=O)(O)OC[C@H]2O[C@@H](n3c[n+](C)c4c(O)nc(N)nc43)[C@H](O)[C@@H]2O)O[C@H]1n1cnc2c(N)ncnc21` [Compound 16, m^7GppCH2ppAmpG], at Human Dcp2 (27-nt capped RNA, up to 60 min), the “susceptibility of capped RNA to decapping by hDcp2 (in words)” value was “significantly reduced the susceptibility to decapping”. The “Susceptibility to hDcp2 (@30 min)” value at Human Dcp2 came to 0.27 ± 0.07. In addition, the Kd on human eIF4E1a is 12.1 ± 0.5 nM.
